Experimental data taken from patent US20080233206A1, “COMPOSITIONS AND METHODS FOR ANTI-INFLAMMATORY TREATMENTS” (Molecular Research Center, Inc., priority 2007, published 2008).
Read-outs that look alike come from different tables or passages of the source.

Assays:
various cell types = conditions: in vitro and in vivo; cited from earlier work
[1] = prolonged treatment (for acne); cited from earlier work
[2] = tested on: human intestine cell line CCL-221; assay: Growth of human intestine cell line CCL-221; format: cell-based; conditions: 5 μg/ml
Source text: (§1) The intestine epithelial cells have a high proliferation rate. Thus, the anti-proliferating effect of semisynthetic or synthetic tetracyclines may lead to potential side effects, especially during a long-term therapy.

[3] = tested on: human lymphoma Molt-4 cells; assay: Growth of human lymphoma Molt-4 cells; format: cell-based; conditions: 5 μg/ml, read-out: inhibition of cell growth
Source text: as §1

[4] = cited from earlier work
[5] = human subjects, concurrently with a protein diet (Welling, 1977)

NC(=O)C1=C(O)C[C@@H]2C[C@@H]3Cc4cccc(O)c4C(=O)C3=C(O)[C@]2(O)C1=O [CMT-3]
effect on cell proliferation (various cell types): inhibit proliferation

CN(C)c1ccc(O)c2c1C[C@H]1C[C@H]3[C@H](N(C)C)C(O)=C(C(N)=O)C(=O)[C@@]3(O)C(O)=C1C2=O [minocycline]
induced syndrome [1]: drug-induced lupus

C[C@H]1c2cccc(O)c2C(=O)C2=C(O)[C@]3(O)C(=O)C(C(N)=O)=C(O)[C@@H](N(C)C)[C@@H]3[C@@H](O)[C@@H]21 [doxycycline]
inhibition at 5 µg/mL [2]: ~60% | inhibition at 5 µg/mL [3]: ~80% | serum level ([4]; fasting subjects (Depperman, 1989)): 2.7 µg/mL | serum level [4, 5]: 2.6 µg/mL | serum level ([4]; with antacid (aluminum-magnesium hydroxide) (Depperman, 1989)): 0.45 µg/mL

CN(C)[C@@H]1C(O)=C(C(N)=O)C(=O)[C@@]2(O)C(O)=C3C(=O)c4c(O)cccc4[C@@](C)(O)[C@H]3C[C@@H]12 [tetracycline, 4-(Dimethylamino)-1,4,4α,5,5α,6,11,12α-octahydro-3,6,10,12,12α-pentahydroxy-6-methyl-1,1′-dioxo-2-naphtacenecarobxamide]
inhibition at 5 µg/mL [3]: ~20% | serum level [4, 5]: 1.8 µg/mL
